Laboratory results published in paper PMC6982547 (Leukemia & lymphoma, 2019).
Where two headings read alike, the source gives them in different places.

Key:
[1] = cited from earlier work
[2] = test system: patients with relapsed/refractory lymphoid malignancies; experiment: Phase 1 safety and tolerability: DLTs, MTD/RP2D, adverse events; assay type: in vivo, human
[3] = Alisertib pharmacokinetics in plasma; assay type: in vivo, human; details: Schedule I, vorinostat 200 mg, alisertib 30 mg, day 7, N=1
[4] = previously published data; cited from earlier work
clinical = details: human, in vivo; for AUC: AUC0-tau; for half-life: t½
follicular lymphoma = details: single agent, two phase 2 studies; cited from earlier work
[5] = human, in vivo

COc1cc(Nc2ncc3c(n2)-c2ccc(Cl)cc2C(c2c(F)cccc2OC)=NC3)ccc1C(=O)O [Alisertib]
half-life ([1]; previous reports): 14.9 h | apparent clearance ([1]; previously published population estimate): 4.25 L/h | MTD of the combination, alisertib dose ([2]; BID, with 200 mg vorinostat BID, intermittent dosing Schedule II): 20 mg | recommended phase 2 dose (RP2D) of the combination, alisertib dose ([2]; bid, intermittent schedule): 20 mg | Cl/F [3]: 1.68 L/h

O=C(CCCCCCC(=O)Nc1ccccc1)NO [Vorinostat]
clearance [4]: 271 L/h | AUC (clinical; 20 mg): 1030 ng·h/mL | Cmax (clinical; 20 mg): 318 ng/mL | Tmax (clinical; 20 mg): 2.25 h | half-life (clinical; 20 mg): 130 min | AUC (clinical; 30 mg): 1850 ng·h/mL | Cmax (clinical; 30 mg): 560 ng/mL | Tmax (clinical; 30 mg): 2.42 h | AUC (clinical; 40 mg): 956 ng·h/mL | Cmax (clinical; 40 mg): 335 ng/mL | Tmax (clinical; 40 mg): 0.98 h | half-life (clinical; 40 mg): 139 min | AUC (clinical; 200 mg): 1030 ng·h/mL | Cmax (clinical; 200 mg): 391 ng/mL | half-life (clinical; 200 mg): 131 min | half-life (clinical): 138 min | MTD of the combination, vorinostat dose ([2]; BID, with 20 mg alisertib BID, intermittent dosing Schedule II): 200 mg | recommended phase 2 dose (RP2D) of the combination, vorinostat dose ([2]; bid, intermittent schedule): 200 mg | overall response rate (follicular lymphoma): 47-49% | t½ ([5]; 30 mg): 2.38 (0.97) h | AUC0-tau ([5]; 200 mg): 1.10 (0.44) μg/mL•h
